Marks after values point to notes of the source that are not given here.
System: healthy participants
Experiment: 12-lead ECG / QTcF and concentration/QT analysis
Format: in vivo, human
Settings: for QTcF: mean (SD)
Method: Safety and tolerability were assessed throughout the study via treatment emergent adverse event (TEAE) monitoring, vital signs (blood pressure, pulse rate, respiration rate, oral temperature), physical examinations, 12-lead ECGs, and clinical laboratory parameters including complete blood count (CBC), coagulation, hematology, clinical chemistry assessments, and urinalysis. Safety laboratory tests were drawn at pre-dose and at 5, 24, 36 and 144-hours post-dose for 60–400 mg Cohorts; and at 24, 48, 72 and 144-hours post-dose for the 600 mg and Food Effect Cohort. ECG assessments were conducted at pre-dose and at 1, 2, 3, 5, 9, 24, 36 and 144-hours post-dose for 60–400 mg Cohorts; and at 2, 3, 5, 9, 24, 36, 72 and 144-hours post-dose for the 600 mg and Food Effect Cohort. All adverse events (AEs) were assessed by the investigator for severity and relationship to study medication or study procedures.
All AEs were coded using the Medical Dictionary for Regulatory Activities (MedDRA) version 22.0. All AEs were listed, and the emergence of TEAEs were categorized by body system affected and analyzed to determine whether they were related to treatment. Analysis of TEAEs for VU319 vs. Placebo were completed using Fisher’s Exact Test. Assessment of the grade of toxicity or relation to the study drug for each adverse event was determined by the Investigator. Changes in vital signs, physical examination, and laboratory tests were collected. Changes in vital signs from pre-dose to 48 h post-dose were placed into 10-time bins and assessed using mixed-measures ANOVA with the time bins as the within-subjects factor and dose as the between-subjects factor. To assess changes is QT analyses with respect to VU319 concentration, we calculated the maximal change in QTcF from baseline for each participant. We assessed the relationship between these maximal changes from baseline with the participant’s Cmax using Pearson correlations. Outlier QTcF values (> 450 ms) were also assessed against PK concentrations to examine it there was any relationship using Pearson correlations. Analyses of safety data was completed by SAS version 9.4.

Compound: Cn1cc2c(-c3cc(F)c(CN4Cc5ncccc5C4=O)c(F)c3)cccc2n1 [VU319]
- QTcF (Food effect study, 120 mg Fasted, +2 hour): 405.0 (22.7)
- QTcF (Food effect study, 120 mg Fasted, +3 hour): 405.9 (19.13)
- QTcF (Food effect study, 120 mg Fasted, +5 hour): 406.4 (18.05)
- QTcF (Food effect study, 120 mg Fasted, +9 hour): 405.5 (14.4)
- QTcF (Food effect study, 120 mg Fasted, +24 hour): 401.2 (19.21)
- QTcF (Food effect study, 120 mg Fasted, +36 hour): 405.2 (23.74)
- QTcF (Food effect study, 120 mg Fasted, +72 hour): 403.2 (16.39)
- QTcF (Food effect study, 120 mg Fasted, +144 hour): 405.1 (19.72)
- QTcF (Food effect study, 120 mg Fasted, Baseline): 408.9 (20.1)
- QTcF (Food effect study, 120 mg Fed, +2 hour): 399.2 (19.09)
- QTcF (Food effect study, 120 mg Fed, +3 hour): 402.3 (24.08)
- QTcF (Food effect study, 120 mg Fed, +5 hour): 405.0 (16.01)
- QTcF (Food effect study, 120 mg Fed, +9 hour): 402.5 (19.51)
- QTcF (Food effect study, 120 mg Fed, +24 hour): 403.0 (16.89)
- QTcF (Food effect study, 120 mg Fed, +36 hour): 399.5 (21.91)
- QTcF (Food effect study, 120 mg Fed, +72 hour, n = 9, in ms): 402.7 (17.38)^#
- QTcF (Food effect study, 120 mg Fed, +144 hour): 403.6 (24.86)
- QTcF (Food effect study, 120 mg Fed, Baseline): 406.7 (21.7)
- QT intervals, effect of dose (SAD study): no significant dose-by-time interactions or main effects of dose group
- QTcF (SAD study, 60 mg, +1 hour): 411.0 (11.82)
- QTcF (SAD study, 60 mg, +2 hour): 414.8 (18.13)
- QTcF (SAD study, 60 mg, +3 hour): 412.8 (23.01)
- QTcF (SAD study, 60 mg, +5 hour): 417.2 (19.47)
- QTcF (SAD study, 60 mg, +9 hour): 411.3 (21.31)
- QTcF (SAD study, 60 mg, +24 hour): 408.7 (8.52)
- QTcF (SAD study, 60 mg, +36 hour, n = 5): 410.6 (10.5)*
- QTcF (SAD study, 60 mg, +144 hour): 415.5 (7.66)
- QTcF (SAD study, 60 mg, Baseline): 418.0 (17.1)
- QTcF (SAD study, 120 mg, +1 hour): 409.7 (15.34)
- QTcF (SAD study, 120 mg, +2 hour): 407.0 (21.02)
- QTcF (SAD study, 120 mg, +3 hour): 412.7 (20.02)
- QTcF (SAD study, 120 mg, +5 hour): 406.8 (15.5)
- QTcF (SAD study, 120 mg, +9 hour): 409.2 (16.68)
- QTcF (SAD study, 120 mg, +24 hour): 408.3 (12.64)
- QTcF (SAD study, 120 mg, +36 hour): 408.0 (18.17)
- QTcF (SAD study, 120 mg, +144 hour): 406.7 (17.95)
- QTcF (SAD study, 120 mg, Baseline): 406.0 (12.23)
- QTcF (SAD study, 240 mg, +1 hour): 422.7 (22.05)
- QTcF (SAD study, 240 mg, +2 hour): 415.5 (28.46)
- QTcF (SAD study, 240 mg, +3 hour): 421.7 (19.48)
- QTcF (SAD study, 240 mg, +5 hour): 414.8 (24.28)
- QTcF (SAD study, 240 mg, +9 hour): 421.0 (15.03)
- QTcF (SAD study, 240 mg, +24 hour): 415.2 (16.22)
- QTcF (SAD study, 240 mg, +36 hour): 418.2 (24.29)
- QTcF (SAD study, 240 mg, +144 hour): 422.8 (12.32)
- QTcF (SAD study, 240 mg, Baseline): 426.0 (33.22)
- QTcF (SAD study, 400 mg, +1 hour): 405.3 (24.45)
- QTcF (SAD study, 400 mg, +2 hour): 405.0 (26.62)
- QTcF (SAD study, 400 mg, +3 hour): 405.3 (25.65)
- QTcF (SAD study, 400 mg, +5 hour): 405.2 (27.72)
- QTcF (SAD study, 400 mg, +9 hour): 400.7 (23.41)
- QTcF (SAD study, 400 mg, +24 hour): 400.7 (17.13)
- QTcF (SAD study, 400 mg, +36 hour): 404.5 (20.16)
- QTcF (SAD study, 400 mg, +144 hour): 410.5 (10.21)
- QTcF (SAD study, 400 mg, Baseline): 401.8 (24.13)
- QTcF (SAD study, 600 mg, +2 hour): 419.7 (27.65)
- QTcF (SAD study, 600 mg, +3 hour): 419.5 (31.48)
- QTcF (SAD study, 600 mg, +5 hour): 413.8 (23.37)
- QTcF (SAD study, 600 mg, +9 hour): 413.8 (26.54)
- QTcF (SAD study, 600 mg, +24 hour): 408.0 (17.38)
- QTcF (SAD study, 600 mg, +36 hour): 418.2 (24.79)
- QTcF (SAD study, 600 mg, +72 hour): 413.3 (19.22)
- QTcF (SAD study, 600 mg, +144 hour): 415.7 (23.99)
- QTcF (SAD study, 600 mg, Baseline): 416.0 (25.35)
- relationship between change in QTcF from baseline and Cmax (SAD study, p > 0.6): did not show a significant relationship
- relationship between change in QTcF from baseline and Cmax (food effect study, Fasted p > 0.4, Fed p > 0.5): did not show a significant relationship

Reference: article PMC12211128, “Safety, tolerability, pharmacokinetic and pharmacodynamic effects of the muscarinic M1 positive allosteric modulator VU0467319 for Alzheimer’s disease: a single ascending-dose study in healthy participants” (Alzheimer's Research & Therapy, 2025)
